Measurements taken from the supplement of paper PMC11208160.

Assay: recombinant UMI read abundance after kanamycin selection (control-corrected) (log10(CPM+1)); higher = more efficient recombination; extreme values may be limits of the assay; sequences stand for … in AGTGCAGAGAAAATCGGCCAGTTTTCTCTGCCTGCAGTCCGCATGCCGTGGGACCCCTTGGGTTCTAACCTGTTGCCTAGATTTATGCAGCGGACTGCCTTTCTCCCAAAGTGATAAACCGG…AGGTTGGTTTCACT; site = the 11-nt donor
Procedure, shortened: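 Reported values are log10(CPM+1) from a pooled Escherichia coli screen of donor and donor-binding-loop pairs for the IS621 bridge recombinase. Selection used IPTG (0.07 mM) plus kanamycin, against unselected plating, each in two replicates. Recombinant UMIs were amplified across the donor–target junction, sequenced, converted to CPM, averaged over replicates and scaled by control-derived factors.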
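Note: IS621 bridge recombinase in Escherichia coli cells against a fixed T5 target plasmid.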

| Sequence | recombinant UMI read abundance (log10) |
| --- | --- |
| CCCTTCTCATGGACCGGTTTTCCCGGTAATCCGTATTTGAG (site CCCTTCTCTCA) | 0.00351 |
| CCCTTCTCATGGACCGGTTTTCCCGGTAATCCGTATTTGAG (site CCCTTCTCTCC) | 0.00506 |
| CCCTTCTCATGGACCGGTTTTCCCGGTAATCCGTATTTGAG (site CCCTTCTCTCG) | 0.01 |
| CCCTTCTCATGGACCGGTTTTCCCGGTAATCCGTATTTGAG (site CCCTTCTCTCT) | 0.00554 |
| CCCTTCTCATGGACCGGTTTTCCCGGTAATCCGTATTTGCG (site CCCTTCTCTCA) | 0.02 |
| CCCTTCTCATGGACCGGTTTTCCCGGTAATCCGTATTTGCG (site CCCTTCTCTCC) | 0.195 |
| CCCTTCTCATGGACCGGTTTTCCCGGTAATCCGTATTTGCG (site CCCTTCTCTCG) | 1.08 |
| CCCTTCTCATGGACCGGTTTTCCCGGTAATCCGTATTTGCG (site CCCTTCTCTCT) | 0.061 |
| CCCTTCTCATGGACCGGTTTTCCCGGTAATCCGTATTTGGA (site CCCTTCTCTAC) | 0 |
| CCCTTCTCATGGACCGGTTTTCCCGGTAATCCGTATTTGGA (site CCCTTCTCTCC) | 0.0081 |
| CCCTTCTCATGGACCGGTTTTCCCGGTAATCCGTATTTGGA (site CCCTTCTCTGC) | 0 |
| CCCTTCTCATGGACCGGTTTTCCCGGTAATCCGTATTTGGA (site CCCTTCTCTTC) | 0.21 |
| CCCTTGCCATGGACCGGTTTTCCCGGTAATCCGTATTTGCC (site CCCTAGCCTGG) | 0 |
| CCCTTGCCATGGACCGGTTTTCCCGGTAATCCGTATTTGCC (site CCCTCGCCTGG) | 0 |
| CCCTTGCCATGGACCGGTTTTCCCGGTAATCCGTATTTGCC (site CCCTGGCCTGG) | 0 |
| CCCTTGCCATGGACCGGTTTTCCCGGTAATCCGTATTTGCC (site CCCTTGCCTGG) | 0 |
| CCCTTGTCATGGACCGGTTTTCCCGGTAATCCGTATTTGGG (site CCCTTATCTCC) | 0.393 |
| CCCTTGTCATGGACCGGTTTTCCCGGTAATCCGTATTTGGG (site CCCTTCTCTCC) | 0.00922 |
| CCCTTGTCATGGACCGGTTTTCCCGGTAATCCGTATTTGGG (site CCCTTGTCTCC) | 0.297 |

| Sequence | recombinant UMI read abundance (log10) |
| --- | --- |
| CCCTTGTCATGGACCGGTTTTCCCGGTAATCCGTATTTGGG (site CCCTTTTCTCC) | 0.0116 |
| CCCTTTACATGGACCGGTTTTCCCGGTAATCCGTATTTGCT (site CCATTTACTAG) | 0 |
| CCCTTTACATGGACCGGTTTTCCCGGTAATCCGTATTTGCT (site CCCTTTACTAG) | 1.76 |
| CCCTTTACATGGACCGGTTTTCCCGGTAATCCGTATTTGCT (site CCGTTTACTAG) | 0 |
| CCCTTTACATGGACCGGTTTTCCCGGTAATCCGTATTTGCT (site CCTTTTACTAG) | 0 |
| CCGAAACCATGGACCGGTTTTCCCGGTAATCCGTATTTGTT (site CCGAAACCTAA) | 0 |
| CCGAAACCATGGACCGGTTTTCCCGGTAATCCGTATTTGTT (site CGGAATCCTAA) | 0.00312 |
| CCGAAGGCATGGACCGGTTTTCCCGGTAATCCGTATTTGTG (site CCGAAGGCTCA) | 0.495 |
| CCGAATACATGGACCGGTTTTCCCGGTAATCCGTATTTGGC (site CCAAATACTGC) | 0 |
| CCGAATACATGGACCGGTTTTCCCGGTAATCCGTATTTGGC (site CCCAATACTGC) | 0 |
| CCGAATACATGGACCGGTTTTCCCGGTAATCCGTATTTGGC (site CCGAATACTGC) | 0 |
| CCGAATACATGGACCGGTTTTCCCGGTAATCCGTATTTGGC (site CCTAATACTGC) | 0 |
| CCGACATCATGGACCGGTTTTCCCGGTAATCCGTATTTGCT (site CAGACATCTAG) | 0 |
| CCGACATCATGGACCGGTTTTCCCGGTAATCCGTATTTGCT (site CCGACATCTAG) | 0.421 |
| CCGACATCATGGACCGGTTTTCCCGGTAATCCGTATTTGCT (site CGGACATCTAG) | 0 |
| CCGACATCATGGACCGGTTTTCCCGGTAATCCGTATTTGCT (site CTGACATCTAG) | 0 |
| CCGACCTCATGGACCGGTTTTCCCGGTAATCCGTATTTGGT (site CCGACCTCTAC) | 0.121 |
| CCGATATCATGGACCGGTTTTCCCGGTAATCCGTATTTGTC (site CCAATATCTGA) | 0 |
| CCGATATCATGGACCGGTTTTCCCGGTAATCCGTATTTGTC (site CCCATATCTGA) | 0 |
